Experimental findings from patent publication US20240254124A1, “AZAINDOLE ROCK INHIBITORS” (priority 2022, published 2024) are described below.

In one data set the target is ROCK2 (Homo sapiens (Human), UniProt O75116). The data set is described as follows: ROCK2 inhibition assay (HotSpot, 33P-ATP). Type of data set: biochemical.
A short description of data set [1]: 24 hour mouse pharmacokinetics. Type of data set: in vivo, B6SJLF1/J mice. The procedure:
Groups 2, 3, 4, 6, and 8: Test article was dissolved in a minimal amount of DMSO (Groups 2, 4, 6, 8: 40-50 μL, Group 3: 100 μL), 0.5% methylcellulose was added to final volume, then solution was sonicated for 2 minutes.
Group 7: Test article was dissolved in 100 μL DMSO, saline was added to final volume, then solution was sonicated for 2 minutes.
Groups 1, 5: The test article was administered as a single dose via slow bolus intravenous administration into a lateral tail vein, with a 27G needle.
Groups 2, 4, 6, 7, 8: The test article was administered as a single dose directly to the stomach by oral gavage.
Group 3: The test article was administered as a single dose in two parts with an approximate 1-2-minute rest between due to volume administered.
Approximately 150 μL of blood was collected by tail nick for the first time point and then the maximal volume by cardiac stick for the second, terminal time point in each mouse. The plasma was spun and separated within 30 minutes of collection and stored frozen at −20° C. until shipment.
Prior to the terminal blood collection, CSF was collected. […] The resulting data is shown in Tables 13, 14, 15, 16 and 17 below.

For a further data set, the target named is hERG (Homo sapiens (Human), UniProt Q12809). Put plainly: biochemical.
Data set [2] is described as follows: 24 hour rat pharmacokinetics. Conditions: male.
The target in another data set is ROCK1 (Homo sapiens (Human), UniProt Q13464). The data set is described as follows: ROCK1 inhibition assay (HotSpot, 33P-ATP). Type of data set: biochemical. The conditions noted are these: Table 2A; 10 μM ATP.
A further data set deals with PRKX (Homo sapiens (Human), UniProt P51817). Put plainly: PRKX inhibition assay (HotSpot, 33P-ATP). The data set is classed as biochemical. The conditions noted are these: Table 2B; 10 μM ATP; Compound 1 is geometric mean of multiple experiments. The procedure: (§1) Compounds as a powder were dissolved in dimethyl sulfoxide to make a 10 mM stock. […] The HotSpot kit employing ^33P-ATP was used with reactions conducted at 10 μM ATP for each tested enzyme. The percent activity relative to DMSO controls for each concentration was then fitted to a curve using GraphPad Prism to determine the IC50. […] Each experiment was run in the same lab with this procedure.

A further data set concerns the target PKA (Homo sapiens (Human), UniProt P17612). The data set is described as follows: PKA inhibition assay (HotSpot, 33P-ATP). The conditions noted are these: Table 2B; 10 μM ATP; Compound 1 is geometric mean of multiple experiments. Type of data set: biochemical. The procedure:
as §1

Sequence of ROCK2 (O75116 whole entry): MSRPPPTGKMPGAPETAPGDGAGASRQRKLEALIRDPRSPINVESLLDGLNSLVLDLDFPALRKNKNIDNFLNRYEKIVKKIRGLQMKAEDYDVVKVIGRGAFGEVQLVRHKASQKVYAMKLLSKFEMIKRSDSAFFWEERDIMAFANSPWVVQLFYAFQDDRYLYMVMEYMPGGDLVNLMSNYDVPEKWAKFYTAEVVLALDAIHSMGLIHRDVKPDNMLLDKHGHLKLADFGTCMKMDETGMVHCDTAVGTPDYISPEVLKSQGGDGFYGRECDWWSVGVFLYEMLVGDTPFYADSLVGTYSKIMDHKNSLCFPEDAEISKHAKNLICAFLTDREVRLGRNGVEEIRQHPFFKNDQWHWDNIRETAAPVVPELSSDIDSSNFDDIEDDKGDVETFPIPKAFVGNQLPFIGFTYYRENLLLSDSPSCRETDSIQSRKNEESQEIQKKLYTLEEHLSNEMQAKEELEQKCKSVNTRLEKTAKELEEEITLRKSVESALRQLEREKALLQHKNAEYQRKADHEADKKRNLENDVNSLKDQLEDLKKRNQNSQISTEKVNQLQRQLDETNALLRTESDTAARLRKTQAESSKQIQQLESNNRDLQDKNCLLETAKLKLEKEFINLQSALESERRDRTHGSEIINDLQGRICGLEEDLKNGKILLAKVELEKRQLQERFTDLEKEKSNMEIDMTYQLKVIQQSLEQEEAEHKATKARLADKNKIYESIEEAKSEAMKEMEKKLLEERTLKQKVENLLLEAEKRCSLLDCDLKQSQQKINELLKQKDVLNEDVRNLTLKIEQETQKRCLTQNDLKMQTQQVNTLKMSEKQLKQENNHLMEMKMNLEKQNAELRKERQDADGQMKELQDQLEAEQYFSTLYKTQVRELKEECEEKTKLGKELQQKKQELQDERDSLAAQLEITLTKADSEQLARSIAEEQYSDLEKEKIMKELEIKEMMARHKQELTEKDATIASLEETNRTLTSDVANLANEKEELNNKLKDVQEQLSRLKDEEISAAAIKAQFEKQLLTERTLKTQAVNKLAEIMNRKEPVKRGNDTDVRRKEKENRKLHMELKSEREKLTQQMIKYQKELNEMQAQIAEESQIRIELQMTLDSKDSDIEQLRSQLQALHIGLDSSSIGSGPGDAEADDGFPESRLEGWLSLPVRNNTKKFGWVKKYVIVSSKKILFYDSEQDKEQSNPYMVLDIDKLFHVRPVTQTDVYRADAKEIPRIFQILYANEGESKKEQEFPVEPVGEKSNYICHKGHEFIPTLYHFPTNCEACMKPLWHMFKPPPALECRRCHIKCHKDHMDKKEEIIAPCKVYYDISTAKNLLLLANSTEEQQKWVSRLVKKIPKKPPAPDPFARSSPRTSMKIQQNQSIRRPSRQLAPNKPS
Sequence of ROCK1 (Q13464 whole entry): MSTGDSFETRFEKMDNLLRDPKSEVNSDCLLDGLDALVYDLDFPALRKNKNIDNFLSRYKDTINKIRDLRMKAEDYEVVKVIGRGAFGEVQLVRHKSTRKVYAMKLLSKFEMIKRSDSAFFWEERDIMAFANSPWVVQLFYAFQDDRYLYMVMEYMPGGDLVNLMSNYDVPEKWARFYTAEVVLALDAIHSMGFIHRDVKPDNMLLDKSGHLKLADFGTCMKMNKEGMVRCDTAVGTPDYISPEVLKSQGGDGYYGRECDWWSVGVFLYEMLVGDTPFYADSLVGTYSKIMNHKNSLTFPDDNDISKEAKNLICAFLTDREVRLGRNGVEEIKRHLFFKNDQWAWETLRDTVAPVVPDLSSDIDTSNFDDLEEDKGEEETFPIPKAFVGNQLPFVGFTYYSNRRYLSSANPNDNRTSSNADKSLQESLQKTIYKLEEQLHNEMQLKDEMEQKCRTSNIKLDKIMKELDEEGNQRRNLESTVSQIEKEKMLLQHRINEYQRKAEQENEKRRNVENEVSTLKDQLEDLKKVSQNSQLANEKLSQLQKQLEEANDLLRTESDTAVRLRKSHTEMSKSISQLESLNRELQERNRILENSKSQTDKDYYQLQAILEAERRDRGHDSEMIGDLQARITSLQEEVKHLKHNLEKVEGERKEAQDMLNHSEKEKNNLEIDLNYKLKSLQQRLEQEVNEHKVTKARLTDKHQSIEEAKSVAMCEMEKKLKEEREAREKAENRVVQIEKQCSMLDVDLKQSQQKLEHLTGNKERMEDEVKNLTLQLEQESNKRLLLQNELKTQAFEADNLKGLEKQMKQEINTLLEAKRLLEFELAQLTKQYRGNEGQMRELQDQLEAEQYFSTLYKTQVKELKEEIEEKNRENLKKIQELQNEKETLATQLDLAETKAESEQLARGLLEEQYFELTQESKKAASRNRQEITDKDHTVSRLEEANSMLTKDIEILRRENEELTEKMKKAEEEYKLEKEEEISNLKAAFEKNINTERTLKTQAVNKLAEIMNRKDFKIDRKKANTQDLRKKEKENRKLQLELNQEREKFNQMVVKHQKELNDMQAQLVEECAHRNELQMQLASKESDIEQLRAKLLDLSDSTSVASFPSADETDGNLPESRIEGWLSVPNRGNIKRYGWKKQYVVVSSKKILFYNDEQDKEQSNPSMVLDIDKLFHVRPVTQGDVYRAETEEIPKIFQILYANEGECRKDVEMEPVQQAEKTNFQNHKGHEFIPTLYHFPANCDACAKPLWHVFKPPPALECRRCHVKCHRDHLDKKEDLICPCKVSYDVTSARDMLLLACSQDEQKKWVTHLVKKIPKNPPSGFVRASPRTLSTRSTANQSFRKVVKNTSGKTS
Sequence of PRKX (P51817 whole entry): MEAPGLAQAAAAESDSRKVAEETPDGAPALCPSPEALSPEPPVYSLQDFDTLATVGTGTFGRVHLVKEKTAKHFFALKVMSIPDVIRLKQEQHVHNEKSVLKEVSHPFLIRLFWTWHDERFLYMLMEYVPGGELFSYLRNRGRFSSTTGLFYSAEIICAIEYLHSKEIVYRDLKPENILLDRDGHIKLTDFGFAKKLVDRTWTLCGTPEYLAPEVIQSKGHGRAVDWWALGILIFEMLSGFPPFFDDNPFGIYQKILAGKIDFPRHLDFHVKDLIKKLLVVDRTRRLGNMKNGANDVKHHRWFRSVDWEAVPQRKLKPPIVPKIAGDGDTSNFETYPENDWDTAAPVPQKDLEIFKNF
Sequence of hERG (Q12809 whole entry): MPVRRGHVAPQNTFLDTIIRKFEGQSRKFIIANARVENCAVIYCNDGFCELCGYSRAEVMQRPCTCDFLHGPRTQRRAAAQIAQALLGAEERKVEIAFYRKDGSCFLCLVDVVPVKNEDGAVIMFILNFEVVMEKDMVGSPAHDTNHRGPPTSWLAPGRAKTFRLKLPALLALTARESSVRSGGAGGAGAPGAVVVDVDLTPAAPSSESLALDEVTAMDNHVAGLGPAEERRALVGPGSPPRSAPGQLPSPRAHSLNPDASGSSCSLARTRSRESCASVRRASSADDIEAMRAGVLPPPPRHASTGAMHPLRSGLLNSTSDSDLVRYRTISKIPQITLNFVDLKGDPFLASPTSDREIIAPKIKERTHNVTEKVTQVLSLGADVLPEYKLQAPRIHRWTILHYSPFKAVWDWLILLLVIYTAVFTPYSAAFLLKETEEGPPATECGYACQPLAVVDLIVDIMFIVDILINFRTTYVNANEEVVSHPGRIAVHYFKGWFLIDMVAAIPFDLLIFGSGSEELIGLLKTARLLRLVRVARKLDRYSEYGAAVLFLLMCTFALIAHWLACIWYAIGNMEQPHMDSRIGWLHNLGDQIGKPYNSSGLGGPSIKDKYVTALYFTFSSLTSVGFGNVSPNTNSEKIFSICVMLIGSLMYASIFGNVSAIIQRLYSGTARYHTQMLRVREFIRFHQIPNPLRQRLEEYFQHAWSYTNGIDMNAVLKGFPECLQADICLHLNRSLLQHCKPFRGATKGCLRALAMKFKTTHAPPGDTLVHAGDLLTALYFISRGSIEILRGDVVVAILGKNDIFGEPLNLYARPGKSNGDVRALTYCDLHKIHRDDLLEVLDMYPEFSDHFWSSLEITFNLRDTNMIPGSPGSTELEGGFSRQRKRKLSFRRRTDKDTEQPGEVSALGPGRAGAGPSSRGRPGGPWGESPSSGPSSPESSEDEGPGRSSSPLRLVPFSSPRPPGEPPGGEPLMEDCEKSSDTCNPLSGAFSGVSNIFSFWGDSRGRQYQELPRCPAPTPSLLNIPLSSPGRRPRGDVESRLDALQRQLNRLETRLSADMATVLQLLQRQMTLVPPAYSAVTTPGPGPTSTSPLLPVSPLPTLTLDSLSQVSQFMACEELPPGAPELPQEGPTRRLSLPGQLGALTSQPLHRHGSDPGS

For the compound `Cn1c(C(=O)NCc2ccccc2F)cc2ccc(-c3cn[nH]c3)nc21` [Compound 1, N-(2-fluorobenzyl)-1-methyl-6-(1H-pyrazol-4-yl)-1H-pyrrolo[2,3-b]pyridine-2-carboxamide], the “concentration required to inhibit half of ROCK2's activity, lower than Fasudil” value at ROCK2 (head-to-head against Fasudil) was “more than 50 fold”. Moreover, the AUC0-t/D in data set [1] (IV 3 mg/kg, male) is given as 3380 (h * ng/ml)/(mg/kg); in data set [1] (PO 10 mg/kg, female) it was 567 (h * ng/ml)/(mg/kg); in data set [1] (PO 10 mg/kg, male) it was 535 (h * ng/ml)/(mg/kg); in data set [1] (PO 100 mg/kg, male) it was 441 (h * ng/ml)/(mg/kg); in data set [2] (IV 3 mg/kg), 1541 (h * ng/ml)/(mg/kg); in data set [2] (PO 10 mg/kg), 261 (h * ng/ml)/(mg/kg). Further, the “Ratio to 10 mg/kg Dose Level, AUC0-∞” value in data set [1] (PO 100 mg/kg, male) is reported as 8.00. Further, on hERG, the dissociation constant (Kd) (in general, the concentration at which binding is half-saturated) was above 100000 nM.

Take `Cc1[nH]ncc1-c1ccc2cc(C(=O)NCc3c(Cl)cccc3C3(O)CC3)[nH]c2n1` [Compound 6, N-(2-chloro-6-(1-hydroxycyclopropyl)benzyl)-6-(5-methyl-1H-pyrazol-4-yl)-1H-pyrrolo[2,3-b]pyridine-2-carboxamide]: the IC50 (in general, the concentration that gives 50% inhibition) was 35.6 nM on ROCK1; 10.1 nM on ROCK2 (Table 2A, 10 μM ATP); 32.3 nM on PRKX; 103 nM on PKA.
